Where two headings read alike, the source gives them in different places. Marks after values point to notes of the source that are not given here. One block for each compound: values may come before it.
How the values were obtained:
[1] = Transfer of 2a between two organic phases through an FC-72 phase (U-tube); assay type: physicochemical; conditions: FC-72 stirred 23° C., 3 days
Protocol: 2-(2-Naphtylethanol) 2a (10 mg) was dissolved in an organic solvent (1 ml) and the mixture was put into one side (side A) of U-tube 10 of FIG. 1, in which FC-72 (10 ml) was placed. The other organic solvent was put into the other side (side B) of U-tube 10 and the center phase (FC-72) was stirred (via, for example, magnetic stirring element 130) at 23° C. for 3 days without mixing the interfaces between the organic and FC-72 layers. The weights of each organic phase were measured after evaporation.

[2] = Selective transport of a fluorous-tagged component of a mixture through FC-72 between two acetonitrile phases; assay type: physicochemical
[3] = Transfer of organic compounds between two MeCN phases through an FC-72 phase (U-tube); assay type: physicochemical; conditions: two MeCN phases through FC-72, 23° C., 3 days
[4] = between FC-72 and MeOH
[5] = U-tube transport of guest molecules from aqueous S-phase through FC-72 F-phase to basic aqueous P-phase, with or without fluorous transport agent 3b; assay type: physicochemical; conditions: transport agent 3b about 1 mM in FC-72; S-phase water, P-phase pH 11.5 phosphate buffer; ambient temperature
Protocol: In an illustrative example, several transport experiments were carried out with a variety of guest molecules and fluorous transport agent 3b. The F-phase included transport agent 3b, at about 1 mM in the fluorous solvent FC-72. This F-phase was contacted in a U-tube with a first phase containing various organic compounds in water and a second aqueous phase containing hydroxide ion (pH 11.5 phosphate buffer). After various periods of time at ambient temperature, a portion of the more basic, P-phase was removed and subjected to quantitative analysis by UV absorbance spectrophotometry. The measured absorbances were converted to the concentration of each organic compound by the use of a calibration curve. The organic solutes tested were phenobarbital, secobarbital, mephobarbital, thiopental, 2-ethyl, 2-phenylmalonamide, and p-toluenesulfonate. […] The amount of each compound transported (as a fraction of the amount in the S-phase) is plotted versus time. The data points represent behavior of mephobarbital (represented by solid squares), secobarbital (represented by open squares), thiopental (represented by triangles), phenobarbital (represented by diamonds), malonamide and p-toluenesulfonate (both represented by open circles). Each of the barbiturates was transported through the fluorous phase in the presence of transport agent 3b. […]

ratio of 2a (A/B) ([1]; side A MeCN, side B MeCN): 99/1
ratio of 2a (A/B) ([1]; side A MeCN, side B MeOH): >99/1
ratio of 2a (A/B) ([1]; side A MeCN, side B THF): >99/1
ratio of 2a (A/B) ([1]; side A MeOH, side B MeCN): 99/1
ratio of 2a (A/B) ([1]; side A MeOH, side B MeOH): 99/1
ratio of 2a (A/B) ([1]; side A MeOH, side B THF): 96/4
ratio of 2a (A/B) ([1]; side A THF, side B MeOH): 97/3
ratio of 2a (A/B) ([1]; side A THF, side B THF): 90/10
presence in P-phase by TLC or 1H NMR ([2]; after 1d, 1/1 mixture with 1g in acetonitrile S-phase): not detected
ratio (A/B) [3]: 99/1
Compound: OCCc1ccc2ccccc2c1 [2a, 2-(2-naphthyl)ethanol]

Compound: CC(C)[Si](CCC(F)(F)C(F)(F)C(F)(F)C(F)(F)C(F)(F)C(F)(F)F)(OCCc1ccc2ccccc2c1)C(C)C [1c, Diisopropyl-1H,1H,2H,2H-perfluorooctanylsilyl 2-naphthylethyl ether]
Kp (partition coefficient) [4]: 0.39

Compound: CC(C)[Si](CCC(F)(F)C(F)(F)C(F)(F)C(F)(F)C(F)(F)C(F)(F)C(F)(F)C(F)(F)F)(OCCc1ccc2ccccc2c1)C(C)C [1a, diisopropyl-1H,1H,2H,2H-perfluorodecanylsilyl 2-naphthylethyl ether]
Kp (partition coefficient) [4]: 0.92
partition coefficient (FC-72 / CH2Cl2, 23 C): 0.14
partition coefficient (FC-72 / DMF, 23 C): 0.38
partition coefficient (FC-72 / EtOH, 23 C): 0.91
partition coefficient (FC-72 / MeCN, 23 C): 0.74
partition coefficient (FC-72 / MeOH, 23 C): 0.92
partition coefficient (FC-72 / THF, 23 C): 0.04

Compound: CC(C)[Si](CCC(F)(F)C(F)(F)C(F)(F)C(F)(F)C(F)(F)C(F)(F)C(F)(F)C(F)(F)F)(OCC=Cc1ccccc1)C(C)C [1g, (3,3,4,4,5,5,5,6,6,7,7,8,8,9,9,10,10,10,10-heptadecafluorodecyl)-diisopropyl(3-phenyl-allyloxy)silane]
Kp (partition coefficient) [4]: 1.3
Mass of the residue (P-phase) ([2]; P-phase removed at 3 h, 1/1 mixture of 2a and 1g in acetonitrile S-phase): 4.5 mg
Mass of the residue (P-phase) ([2]; P-phase removed at 7 h, fresh acetonitrile after each removal): 6 mg
Mass of the residue (P-phase) ([2]; P-phase removed at 24 h, fresh acetonitrile after each removal): 7 mg

ratio (A/B) [3]: 96/4
Compound: CC(O)c1ccc2ccccc2c1 (stereo not shown) [1-(2-naphthyl)ethanol]

ratio (A/B) [3]: 82/18
Compound: CC(N)c1cccc2ccccc12 (stereo not shown) [1-(1-naphthyl)ethylamine]

ratio (A/B) [3]: 99/1
Compound: OCC=Cc1ccccc1 [cinnamyl alcohol]

Compound: N#CCC#N [malononitrile]
ratio (A/B) [3]: >99/1

Compound: CC(C)[Si](CCC(F)(F)C(F)(F)C(F)(F)C(F)(F)C(F)(F)C(F)(F)C(F)(F)C(F)(F)F)(O[C@@H](C)c1ccc2ccccc2c1)C(C)C [1f, diisopropyl-1H,1H,2H,2H-perfluorodecanylsilyl (S)-(−)-1-(2-naphthyl)ethyl ether]
Kp (partition coefficient) [4]: 1.5

ratio (A/B) [3]: 99/1
Compound: N#CCc1ccc2ccccc2c1 [2-naphthylacetonitrile]

ratio (A/B) [3]: >99/1
Compound: O=C(O)Cc1ccc2ccccc2c1 [2-naphthylacetic acid]

ratio (A/B) [3]: 94/6
Compound: CC(=O)Oc1ccc2ccccc2c1 [2-naphthyl acetate]

Compound: p-toluenesulfonate
transport through the fluorous phase to the P-phase [5]: no transport

Compound: CC(=O)Cc1ccc2ccccc2c1 [2-naphthylacetone]
ratio (A/B) [3]: 91/9

ratio (A/B) [3]: 96/4
Compound: CCCCCCCCCCCCO [dodecanol]

Compound: CCc1ccc2ccccc2c1 [2-ethylnaphthalene]
ratio (A/B) [3]: 66/33^a

Reference: patent US6734318B2, “Fluorous triphase and other multiphase systems” (University of Pittsburgh, priority 2001, dated 2004)
